Reference: patent US12441768B2, “Compositions and methods for treating endometriosis” (EndoMet Biosciences, Inc., priority 2018, dated 2025)
Where a SMILES comes first, the peptide text is derived from it. [ ]: non-standard residue; d: D form. The star is where a group is joined. ξ: configuration not given here. ξIle = CC[C@H](C)C(N)C(=O)O; Piv = CC(C)(C)C(=O)*

Columns and labels:
[1] = test system: colon cancer cell line (SW480); format: cell-based; conditions: SW480, peptide added daily, 7 days
Method: Peptides inhibiting β-catenin cause decreased cell viability in a colon cancer cell line (SW480) and endometriosis lesions excised from a disease animal model. Peptides from libraries described herein are characterized in their effect on cell viability, as measured using a luminescent cell viability assay (Cell Titer-Glo®, Promega, Madison, WI) and expressed as IC50 in Table 5. Peptide inhibitors were tested for their ability to inhibit cellular proliferation across 2 different β-catenin expressing pathogenic cell lines: a colon cancer cell line (SW480) and/or mouse EMS lesion cells derived from mouse model of disease. Both cells lines are naturally known to express high levels of β-catenin. Cell lines were incubated with varying concentrations of peptide concentration and assessed for viability after day 5 and 7 days. The CellTiter-Glo® Luminescent Cell Viability Assay (Promega) is used to detect viable cells. IC50 values are graphed and calculated using Prism software (GraphPad) based on the cell viability readouts. IC50 is used to assess inhibition of cell proliferation by peptide concentration and is used to calculate the inhibitory effect of each peptide across each line. The results are used to assess the therapeutic potency of the peptides. In the SW480 cell line, peptide inhibitors from Family 1 (SEQ ID NO:264) and Family 2 (SEQ ID NO:396) were added daily to the cell growth medium. After 7 days, cell viability was assessed with the Cell-Titer Glo kit (Promega, Madison, WI). […] IC50 was calculated for peptides based on the concentration at which 50% viability was observed (Table 5).

β-catenin = biological target: T1, β-catenin (Homo sapiens, UniProt P35222); experiment: KD50 measurement using competitive fluorescence polarization (FP) with labelled TCF4; format: binding; conditions: fluorescence polarization, β-catenin; for Kd: read-out: β-Cat FP KD
T1 sequence (P35222 1-781): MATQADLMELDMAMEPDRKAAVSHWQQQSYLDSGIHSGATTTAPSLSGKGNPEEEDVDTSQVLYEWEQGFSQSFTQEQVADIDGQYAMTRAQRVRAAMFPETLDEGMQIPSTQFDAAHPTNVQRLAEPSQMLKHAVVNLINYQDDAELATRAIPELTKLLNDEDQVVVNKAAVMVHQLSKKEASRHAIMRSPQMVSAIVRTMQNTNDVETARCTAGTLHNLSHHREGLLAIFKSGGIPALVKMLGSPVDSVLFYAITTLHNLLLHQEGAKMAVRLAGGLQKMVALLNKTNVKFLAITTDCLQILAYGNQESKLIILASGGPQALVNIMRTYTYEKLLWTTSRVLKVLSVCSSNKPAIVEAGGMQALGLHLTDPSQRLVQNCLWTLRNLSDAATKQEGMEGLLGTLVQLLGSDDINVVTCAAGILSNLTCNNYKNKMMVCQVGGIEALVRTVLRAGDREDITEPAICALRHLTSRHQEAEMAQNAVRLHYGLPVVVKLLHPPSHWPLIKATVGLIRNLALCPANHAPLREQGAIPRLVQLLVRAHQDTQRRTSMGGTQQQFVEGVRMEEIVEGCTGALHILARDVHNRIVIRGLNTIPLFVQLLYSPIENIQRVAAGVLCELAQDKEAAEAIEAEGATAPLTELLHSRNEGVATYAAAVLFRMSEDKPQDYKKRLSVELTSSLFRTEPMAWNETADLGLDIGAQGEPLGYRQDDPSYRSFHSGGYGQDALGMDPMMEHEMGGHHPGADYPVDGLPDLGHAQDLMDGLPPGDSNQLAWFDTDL
How it was run: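 Labelled TCF4 (5 nM) mixed with 100 nM β-catenin at room temperature; inhibitor added as serial dilutions from 10 nM to 30 uM. Polarization read at excitation 470 nm/emission 520 nm; binding displacement lowers polarization. Three independent runs.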

[2] = biological target: Wnt-responsive promoter (TCF/LEF); experiment: Wnt-dependent luciferase reporter assay; format: cell-based, murine
How it was run: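 Murine 3T3 fibroblasts carrying a TCF/LEF-driven luciferase reporter, stimulated with Wnt3a in the presence of increasing peptide concentrations or vehicle. Luminescence inhibition gave EC50 values in uM.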

in vitro = conditions: % Viability non-Wnt responsive cells

Row | Kd (β-catenin) [µM] | EC50 [2] [µM] | β-Cat FP Hill slope (β-catenin) | Structure (SMILES) | Cell growth / viability [1] | viability (in vitro) [%]
1 | 0.4 to 1 | 7.5 to 15 | 0.7 | CC[C@H](C)[C@H](NC(=O)[C@H](CC(C)C)NC(=O)[C@H](Cc1ccccc1)NC(=O)[C@H](Cc1c[nH]c2ccccc12)NC(=O)[C@@H](N)CCSC)C(=O)N[C@@H](CS)C(=O)N[C@@H](Cc1ccccn1)C(=O)N[C@@H](Cc1c[nH]c2ccccc12)C(=O)NCC(=O)O [compound 148] (HELM PEPTIDE1{M.W.F.L.I.C.[O=C([C@H](Cc1ccccn1)N[*:1])[*:2]].W.G}$$$$V2.0) | – | 95.5
2 | 0.4 to 1 | < 7.5 | 1.92 | CC[C@@H](C)[C@H]1NC(=O)[C@@H](CC(C)C)NC(=O)[C@@H](Cc2ccccc2)NC(=O)[C@H](Cc2c[nH]c3ccccc23)NC(=O)[C@@H](CCSC)NC(=O)CCCCCCCCCCCNC(=O)C[C@@H](C(=O)O)NC(=O)[C@H](Cc2c[nH]c3ccccc23)NC(=O)[C@@H](Cc2ccccc2)NC(=O)[C@H](CS)NC1=O [compound 190] (HELM PEPTIDE1{[O=C(CCCCCCCCCCCN[*:1])[*:2]].[dM].W.[dF].[dL].[dI].C.[dF].W.D}$PEPTIDE1,PEPTIDE1,1:R1-10:R3$$$V2.0) | – | 99.6
3 | 0.4 to 1 | < 7.5 | 2.34 | CC[C@H](C)[C@H]1NC(=O)[C@H](CC(C)C)NC(=O)[C@@H](Cc2ccccc2)NC(=O)[C@H](Cc2c[nH]c3ccccc23)NC(=O)[C@@H](CCSC)NC(=O)CCCCCCCCCCCNC(=O)C[C@@H](C(=O)O)NC(=O)[C@H](Cc2c[nH]c3ccccc23)NC(=O)[C@@H](C)NC(=O)[C@@H](CS)NC1=O [compound 193] (HELM PEPTIDE1{[O=C(CCCCCCCCCCCN[*:1])[*:2]].[dM].W.[dF].L.[CC[C@H](C)[C@@H](N[*:1])C(=O)[*:2]].[dC].[dA].W.D}$PEPTIDE1,PEPTIDE1,1:R1-10:R3$$$V2.0) | – | 96.6
4 | < 0.4 | < 7.5 | 1.04 | CC[C@H](C)C(NC(=O)[C@H](CC(C)C)NC(=O)C(NC(=O)[C@H](Cc1c[nH]c2ccccc12)NC(=O)[C@H](CCSC)NC(=O)C(C)(C)C)[C@@H](C)CC)C(=O)N[C@@H](CO)C(=O)N[C@@H](Cc1ccccc1)C(=O)N[C@@H](Cc1c[nH]c2ccccc12)C(=O)NCC(=O)O (stereo partly shown) [compound 224] (Piv-MW[ξIle]L[ξIle]SFWG-OH) | – | 95.7

More lines, now with the values behind:

Row | Structure (SMILES) | Kd (β-catenin) [µM] | EC50 [2] [µM] | β-Cat FP Hill slope (β-catenin) | Cell growth / viability [1] | viability (in vitro) [%]
5 | CCCCCCCCCCCCCCCC(=O)N[C@@H](Cc1c[nH]c2ccccc12)C(=O)N(C)[C@@H](Cc1c[nH]c2ccccc12)C(=O)N[C@@H](CCC(=O)O)C(=O)NC(C)(CO)C(=O)N[C@H](C(=O)N[C@@H](CC(C)C)C(=O)N[C@@H](CC(=O)O)C(=O)N[C@@H](CCC(=O)O)C(=O)N[C@@H](Cc1c[nH]cn1)C(=O)NC(C)(C(=O)N[C@@H](CCC(N)=O)C(=O)N[C@@H](CCCNC(=N)N)C(=O)N[C@H](C(=O)N[C@@H](Cc1c[nH]c2ccccc12)C(=O)NCC(=O)O)C(C)C)C(C)C)[C@@H](C)CC (single isomer, unassigned) [SEQ ID NO: 396, Palmitoyl-W-NmeW-E-aMeS-ILDEH-aMeV-QRVWG-COOH] | – | – | – | inhibited cell growth | –
6 | CC[C@H](C)[C@H](NC(=O)[C@H](CC(C)C)NC(=O)[C@@H](NC(=O)[C@H](Cc1c[nH]c2ccccc12)NC(=O)[C@H](CCSC)N(C)C)[C@@H](C)CC)C(=O)N[C@@H](CO)C(=O)N[C@@H](Cc1ccccc1)C(=O)N[C@@H](Cc1c[nH]c2ccccc12)C(=O)NCC(=O)O [SEQ ID NO: 264] (HELM PEPTIDE1{[CSCC[C@@H](C(=O)[*:2])N(C)C].W.I.L.I.S.F.W.G}$$$$V2.0) | – | – | – | inhibited cell growth | –
7 | CC[C@H](C)[C@@H]1NC(=O)[C@H](CO)NC(=O)[C@H](CCC(N)=O)NC(=O)[C@H](C)N(C)C(=O)[C@H](Cc2c[nH]c3ccccc23)NC(=O)[C@@H](N)CCCCNC(=O)CNC(=O)[C@H](Cc2c[nH]c3ccccc23)NC(=O)[C@H](C(C)C)NC(=O)[C@H](CCCNC(=N)N)NC(=O)[C@H](CCC(N)=O)NC(=O)[C@H](C(C)C)NC(=O)[C@H](Cc2c[nH]cn2)NC(=O)[C@H](CCC(N)=O)NC(=O)[C@H](CC(N)=O)NC(=O)[C@H](CC(C)C)NC1=O [compound 20] (HELM PEPTIDE1{K.W.[meA].Q.S.I.L.N.Q.H.V.Q.R.V.W.G}$PEPTIDE1,PEPTIDE1,1:R3-16:R2$$$V2.0; bridges inferred) | > 30 | > 30 | – | – | 106
8 | CC[C@H](C)[C@H](NC(=O)[C@H](CO)NC(=O)[C@H](CCC(=O)O)NC(=O)[C@H](Cc1c[nH]c2ccccc12)NC(=O)[C@@H](N)CCSC)C(=O)N[C@@H](CC(C)C)C(=O)N[C@@H](CC(=O)O)C(=O)N[C@@H](CCC(=O)O)C(=O)N[C@@H](Cc1c[nH]cn1)C(=O)N[C@@H](CCSC)C(=O)N[C@@H](CCC(N)=O)C(=O)N[C@@H](CCCNC(=N)N)C(=O)N[C@H](C(=O)N[C@@H](Cc1c[nH]c2ccccc12)C(=O)N[C@@H](CCCNC(=N)N)C(=O)NCC(=O)O)C(C)C [compound 23] (H-MWESILDEHMQRVWRG-OH) | < 0.4 | > 30 | 0.71 | – | 98.9
9 | CC[C@H](C)[C@@H]1NC(=O)[C@H](CC(C)C)NC(=O)[C@H](Cc2ccccc2)NC(=O)[C@H](Cc2c[nH]c3ccccc23)NC(=O)[C@H](CCSC)NC(=O)[C@H](CCCNC(=N)N)NC(=O)[C@H](CO)NC(=O)[C@H](CCSC)NC(=O)[C@@H](N)CCCCNC(=O)CNC(=O)[C@H](CCCNC(=N)N)NC(=O)[C@H](Cc2c[nH]c3ccccc23)NC(=O)[C@H](Cc2ccccc2)NC(=O)[C@H](CO)NC1=O [compound 24] (HELM PEPTIDE1{K.M.S.R.M.W.F.L.I.S.F.W.R.G}$PEPTIDE1,PEPTIDE1,1:R3-14:R2$$$V2.0; bridges inferred) | < 0.4 | > 30 | 1 | – | 96.8
10 | CC[C@H](C)[C@@H]1NC(=O)[C@H](Cc2c[nH]cn2)NC(=O)[C@H](CCC(=O)O)NC(=O)[C@H](Cc2ccccc2)NC(=O)[C@H](Cc2c[nH]c3ccccc23)NC(=O)[C@H](CO)NC(=O)[C@H]([C@@H](C)CC)NC(=O)[C@H](C)N(C)C(=O)[C@H](CC(C)C)NC(=O)[C@@H]2CCCN2C(=O)[C@H](CCSC)NC(=O)[C@@H](N)CCCCNC(=O)CNC1=O [compound 29] (HELM PEPTIDE1{K.M.P.L.[meA].I.S.W.F.E.H.I.G}$PEPTIDE1,PEPTIDE1,1:R3-13:R2$$$V2.0; bridges inferred) | 0.4 to 1 | > 30 | 1.72 | – | 107
11 | CC[C@H](C)[C@@H]1NC(=O)[C@H](CO)NC(=O)[C@H](CCC(=O)O)NC(=O)[C@H](C)N(C)C(=O)[C@H](CCSC)NC(=O)[C@@H](N)CCCCNC(=O)CNC(=O)[C@H](Cc2c[nH]c3ccccc23)NC(=O)[C@H](C(C)C)NC(=O)[C@H](CCCNC(=N)N)NC(=O)[C@H](CCC(N)=O)NC(=O)[C@H](C(C)C)NC(=O)[C@H](Cc2c[nH]cn2)NC(=O)[C@H](CCC(=O)O)NC(=O)[C@H](CC(=O)O)NC(=O)[C@H](CC(C)C)NC1=O [compound 30] (HELM PEPTIDE1{K.M.[meA].E.S.I.L.D.E.H.V.Q.R.V.W.G}$PEPTIDE1,PEPTIDE1,1:R3-16:R2$$$V2.0; bridges inferred) | 1 to 10 | > 30 | 0.7 | – | 106
